# Results as given in the kinase profiling compilation of Christmann-Franck et al. (2016).
# “And” between values parts separate entries of the source, which are not always exact repeats. Equal entries are not always repeated.
# What was measured:
# Assay in all cases: radiometric filter-binding kinase assay, Kinase HotSpot
# Details in all cases: compound 0.5 µM; ATP 10 µM
# ABL1 (human) = ABL1 (human) (UniProt P00519)
# ACVR1B (human) = ACVR1B (human) (UniProt P36896)
# ADRBK2 (human) = ADRBK2 (human) (UniProt P35626)
# BMX (human) = BMX (human) (UniProt P51813)
# CAMK1G (human) = CAMK1G (human) (UniProt Q96NX5)
# CAMK2G (human) = CAMK2G (human) (UniProt Q13555)
# CAMKK2 (human) = CAMKK2 (human) (UniProt Q96RR4)
# CDK7 CCNH MNAT1 (human) = CDK7 CCNH MNAT1 (human) (UniProt P50613+P51948+P51946)
# CSK (human) = CSK (human) (UniProt P41240)
# CSNK2A1 (human) = CSNK2A1 (human) (UniProt P68400)
# DAPK3 (human) = DAPK3 (human) (UniProt O43293)
# DDR2 (human) = DDR2 (human) (UniProt Q16832)
# DYRK1B (human) = DYRK1B (human) (UniProt Q9Y463)
# DYRK3 (human) = DYRK3 (human) (UniProt O43781)
# EPHA1 (human) = EPHA1 (human) (UniProt P21709)
# ERBB4 (human) = ERBB4 (human) (UniProt Q15303)
# GSG2 (human) = GSG2 (human) (UniProt Q8TF76)
# IKBKB (human) = IKBKB (human) (UniProt O14920)
# LYN (human) = LYN (human) (UniProt P07948)
# MAP2K1 (human) = MAP2K1 (human) (UniProt Q02750)
# MAP3K10 (human) = MAP3K10 (human) (UniProt Q02779)
# MAP3K3 (human) = MAP3K3 (human) (UniProt Q99759)
# MAP3K8 (human) = MAP3K8 (human) (UniProt P41279)
# MAP3K9 (human) = MAP3K9 (human) (UniProt P80192)
# MARK3 (human) = MARK3 (human) (UniProt P27448)
# NEK3 (human) = NEK3 (human) (UniProt P51956)
# NTRK3 (human) = NTRK3 (human) (UniProt Q16288)
# PBK (human) = PBK (human) (UniProt Q96KB5)
# PDGFRA (human) = PDGFRA (human) (UniProt P16234)
# PLK2 (human) = PLK2 (human) (UniProt Q9NYY3)
# PNCK (human) = PNCK (human) (UniProt Q6P2M8)
# PRKCG (human) = PRKCG (human) (UniProt P05129)
# PRKD1 (human) = PRKD1 (human) (UniProt Q15139)
# RET (human) = RET (human) (UniProt P07949)
# RIPK2 (human) = RIPK2 (human) (UniProt O43353)
# ROS1 (human) = ROS1 (human) (UniProt P08922)
# RPS6KA4 KD2 (human) = RPS6KA4 KD2 (human) (UniProt O75676)
# SRPK2 (human) = SRPK2 (human) (UniProt P78362)
# TAOK2 (human) = TAOK2 (human) (UniProt Q9UL54)
# TEK (human) = TEK (human) (UniProt Q02763)
# TNK2 (human) = TNK2 (human) (UniProt Q07912)
# TXK (human) = TXK (human) (UniProt P42681)
# TXK (human), sequence (P42681 whole entry, looked up): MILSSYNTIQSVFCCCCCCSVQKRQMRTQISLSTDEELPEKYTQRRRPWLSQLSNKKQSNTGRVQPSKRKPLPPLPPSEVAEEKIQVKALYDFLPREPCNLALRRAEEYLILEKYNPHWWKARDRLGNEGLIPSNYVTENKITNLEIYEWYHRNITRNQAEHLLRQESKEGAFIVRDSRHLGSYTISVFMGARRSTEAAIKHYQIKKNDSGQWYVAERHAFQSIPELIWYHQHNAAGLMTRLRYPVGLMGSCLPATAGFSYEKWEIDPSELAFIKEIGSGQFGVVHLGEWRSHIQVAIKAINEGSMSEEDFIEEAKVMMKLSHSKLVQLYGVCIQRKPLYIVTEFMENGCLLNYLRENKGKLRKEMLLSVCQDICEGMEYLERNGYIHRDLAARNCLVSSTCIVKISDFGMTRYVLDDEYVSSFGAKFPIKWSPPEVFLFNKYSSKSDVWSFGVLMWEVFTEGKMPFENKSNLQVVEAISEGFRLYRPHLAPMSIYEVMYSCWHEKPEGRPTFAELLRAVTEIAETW
# CAMKK2 (human), sequence (Q96RR4 whole entry, looked up): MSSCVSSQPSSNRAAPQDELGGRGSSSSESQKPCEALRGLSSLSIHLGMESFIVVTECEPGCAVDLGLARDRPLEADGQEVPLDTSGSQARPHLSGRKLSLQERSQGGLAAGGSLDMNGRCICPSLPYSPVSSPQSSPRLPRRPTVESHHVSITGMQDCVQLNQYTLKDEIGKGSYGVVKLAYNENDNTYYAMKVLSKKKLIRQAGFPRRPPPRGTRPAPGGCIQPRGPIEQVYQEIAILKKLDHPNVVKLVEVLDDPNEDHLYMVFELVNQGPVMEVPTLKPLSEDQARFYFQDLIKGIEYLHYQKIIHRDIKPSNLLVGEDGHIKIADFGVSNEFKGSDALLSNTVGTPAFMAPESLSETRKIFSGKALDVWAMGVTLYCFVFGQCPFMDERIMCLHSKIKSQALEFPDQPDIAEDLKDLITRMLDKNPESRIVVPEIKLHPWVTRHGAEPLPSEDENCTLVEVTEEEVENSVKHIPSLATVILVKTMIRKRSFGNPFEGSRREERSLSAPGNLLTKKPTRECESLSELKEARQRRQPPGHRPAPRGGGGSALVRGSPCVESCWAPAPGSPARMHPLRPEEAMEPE
# DYRK3 (human), sequence (O43781 whole entry, looked up): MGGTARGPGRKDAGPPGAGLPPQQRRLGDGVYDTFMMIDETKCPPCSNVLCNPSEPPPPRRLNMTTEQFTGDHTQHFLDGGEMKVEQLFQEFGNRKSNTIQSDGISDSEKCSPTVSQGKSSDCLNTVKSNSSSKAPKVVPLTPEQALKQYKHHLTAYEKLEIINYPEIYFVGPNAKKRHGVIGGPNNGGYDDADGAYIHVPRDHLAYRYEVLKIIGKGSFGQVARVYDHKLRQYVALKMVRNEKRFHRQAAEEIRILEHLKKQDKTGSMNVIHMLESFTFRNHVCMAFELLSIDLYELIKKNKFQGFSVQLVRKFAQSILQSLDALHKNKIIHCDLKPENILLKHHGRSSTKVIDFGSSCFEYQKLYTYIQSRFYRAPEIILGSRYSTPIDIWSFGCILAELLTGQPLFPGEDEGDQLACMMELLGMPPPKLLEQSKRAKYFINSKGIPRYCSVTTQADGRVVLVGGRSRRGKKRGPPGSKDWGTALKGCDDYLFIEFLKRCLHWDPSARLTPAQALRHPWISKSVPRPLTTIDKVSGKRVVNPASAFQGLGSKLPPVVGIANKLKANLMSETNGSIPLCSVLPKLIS
# CDK7 CCNH MNAT1 (human), sequence (P50613 whole entry, looked up): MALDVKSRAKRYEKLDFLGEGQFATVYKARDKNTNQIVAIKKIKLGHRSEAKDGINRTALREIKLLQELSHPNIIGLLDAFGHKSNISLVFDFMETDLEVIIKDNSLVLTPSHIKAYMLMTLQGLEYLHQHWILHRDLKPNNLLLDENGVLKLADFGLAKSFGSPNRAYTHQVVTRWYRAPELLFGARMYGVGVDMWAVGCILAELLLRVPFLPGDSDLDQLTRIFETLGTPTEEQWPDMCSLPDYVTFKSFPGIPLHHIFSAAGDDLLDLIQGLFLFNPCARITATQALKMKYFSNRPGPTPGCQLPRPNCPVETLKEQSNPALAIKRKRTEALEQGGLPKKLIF
# CDK7 CCNH MNAT1 (human), sequence (P51946 whole entry, looked up): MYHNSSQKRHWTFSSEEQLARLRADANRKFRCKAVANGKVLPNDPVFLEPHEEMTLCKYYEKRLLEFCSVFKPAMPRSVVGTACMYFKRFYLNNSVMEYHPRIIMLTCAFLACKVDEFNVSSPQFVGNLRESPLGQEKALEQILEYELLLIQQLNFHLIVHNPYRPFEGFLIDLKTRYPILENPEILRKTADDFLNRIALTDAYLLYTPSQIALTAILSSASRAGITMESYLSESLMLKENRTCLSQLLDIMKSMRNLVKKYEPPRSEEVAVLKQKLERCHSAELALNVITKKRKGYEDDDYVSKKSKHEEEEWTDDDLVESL
# CDK7 CCNH MNAT1 (human), sequence (P51948 whole entry, looked up): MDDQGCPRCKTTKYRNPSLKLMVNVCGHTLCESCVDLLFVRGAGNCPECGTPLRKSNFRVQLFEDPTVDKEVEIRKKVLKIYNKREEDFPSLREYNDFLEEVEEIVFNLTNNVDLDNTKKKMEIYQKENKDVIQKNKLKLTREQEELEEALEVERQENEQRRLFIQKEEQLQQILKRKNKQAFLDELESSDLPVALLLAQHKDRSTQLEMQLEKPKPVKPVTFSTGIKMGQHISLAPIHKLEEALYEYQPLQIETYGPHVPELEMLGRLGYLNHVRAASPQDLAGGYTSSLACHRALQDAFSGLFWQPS
# ADRBK2 (human), sequence (P35626 whole entry, looked up): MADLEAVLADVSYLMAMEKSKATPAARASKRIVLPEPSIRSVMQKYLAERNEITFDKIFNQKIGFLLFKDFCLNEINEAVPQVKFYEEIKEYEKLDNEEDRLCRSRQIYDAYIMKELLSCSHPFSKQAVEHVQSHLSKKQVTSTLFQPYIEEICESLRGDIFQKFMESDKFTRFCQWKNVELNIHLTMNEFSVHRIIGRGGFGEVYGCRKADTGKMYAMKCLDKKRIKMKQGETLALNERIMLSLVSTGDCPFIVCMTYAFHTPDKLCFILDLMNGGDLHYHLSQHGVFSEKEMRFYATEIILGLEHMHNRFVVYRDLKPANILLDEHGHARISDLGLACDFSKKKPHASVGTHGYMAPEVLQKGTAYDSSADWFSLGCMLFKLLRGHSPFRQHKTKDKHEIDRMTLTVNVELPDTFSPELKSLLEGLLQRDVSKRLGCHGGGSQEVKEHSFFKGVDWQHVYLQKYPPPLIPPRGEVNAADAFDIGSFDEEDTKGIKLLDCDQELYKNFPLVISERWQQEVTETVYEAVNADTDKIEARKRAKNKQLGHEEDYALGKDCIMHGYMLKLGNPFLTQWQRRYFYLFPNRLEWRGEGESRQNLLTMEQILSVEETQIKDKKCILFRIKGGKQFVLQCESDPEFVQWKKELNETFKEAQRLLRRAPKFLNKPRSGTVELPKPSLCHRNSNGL
# SRPK2 (human), sequence (P78362 whole entry, looked up): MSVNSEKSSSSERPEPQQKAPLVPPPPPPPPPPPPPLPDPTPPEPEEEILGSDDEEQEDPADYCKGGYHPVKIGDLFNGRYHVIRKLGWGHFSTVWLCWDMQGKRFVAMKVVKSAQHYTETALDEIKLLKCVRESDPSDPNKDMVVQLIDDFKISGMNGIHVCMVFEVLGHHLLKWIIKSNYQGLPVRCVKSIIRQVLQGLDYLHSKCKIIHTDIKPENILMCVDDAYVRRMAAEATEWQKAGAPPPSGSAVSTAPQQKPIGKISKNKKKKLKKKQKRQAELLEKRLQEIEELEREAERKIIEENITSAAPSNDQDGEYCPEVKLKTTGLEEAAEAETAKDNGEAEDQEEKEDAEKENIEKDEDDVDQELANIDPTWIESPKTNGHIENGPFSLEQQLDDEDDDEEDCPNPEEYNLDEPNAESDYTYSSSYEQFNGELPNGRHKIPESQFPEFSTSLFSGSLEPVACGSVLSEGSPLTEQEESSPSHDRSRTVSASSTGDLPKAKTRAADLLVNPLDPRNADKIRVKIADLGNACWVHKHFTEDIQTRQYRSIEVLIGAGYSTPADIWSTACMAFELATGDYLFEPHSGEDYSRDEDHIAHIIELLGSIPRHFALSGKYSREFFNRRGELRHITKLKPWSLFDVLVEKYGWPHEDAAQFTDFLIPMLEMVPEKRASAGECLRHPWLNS
# NTRK3 (human), sequence (Q16288 whole entry, looked up): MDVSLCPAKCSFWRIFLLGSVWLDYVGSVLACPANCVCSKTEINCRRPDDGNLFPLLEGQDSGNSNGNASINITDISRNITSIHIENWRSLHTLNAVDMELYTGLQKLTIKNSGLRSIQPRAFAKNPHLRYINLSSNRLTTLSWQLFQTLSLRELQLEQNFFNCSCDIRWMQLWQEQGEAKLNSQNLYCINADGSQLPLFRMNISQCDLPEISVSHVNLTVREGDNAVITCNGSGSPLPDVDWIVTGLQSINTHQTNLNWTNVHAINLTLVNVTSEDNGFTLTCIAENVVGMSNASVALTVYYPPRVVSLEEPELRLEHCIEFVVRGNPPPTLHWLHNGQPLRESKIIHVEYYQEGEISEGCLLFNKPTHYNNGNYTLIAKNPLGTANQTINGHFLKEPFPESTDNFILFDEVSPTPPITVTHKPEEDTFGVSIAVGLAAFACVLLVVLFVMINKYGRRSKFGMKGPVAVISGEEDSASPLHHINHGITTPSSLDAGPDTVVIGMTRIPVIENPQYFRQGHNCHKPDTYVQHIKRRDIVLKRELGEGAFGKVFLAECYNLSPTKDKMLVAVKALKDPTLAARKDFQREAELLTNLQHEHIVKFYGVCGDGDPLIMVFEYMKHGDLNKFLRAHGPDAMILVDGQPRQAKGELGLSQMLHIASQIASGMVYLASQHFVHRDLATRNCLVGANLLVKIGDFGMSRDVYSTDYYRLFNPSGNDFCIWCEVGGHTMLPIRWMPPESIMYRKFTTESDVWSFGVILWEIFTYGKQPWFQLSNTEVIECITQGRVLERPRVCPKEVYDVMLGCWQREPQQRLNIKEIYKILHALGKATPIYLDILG
compound,measurement,setting,value
COc1cc2ncnc(Nc3ccc(OCc4ccccc4)cc3)c2cc1OC,residual activity,ABL1 (human),98%
same,residual activity,ACVR1B (human),102%
same,residual activity,ADRBK2 (human),99.6%
same,residual activity,BMX (human),89.7%
same,residual activity,CAMK1G (human),97.1%
same,residual activity,CAMK2G (human),94.2%
same,residual activity,CAMKK2 (human),99.7%
same,residual activity,CDK7 CCNH MNAT1 (human),98.8%
same,residual activity,CSK (human),72.5%
same,residual activity,CSNK2A1 (human),95.8%
same,residual activity,DAPK3 (human),99.2%
same,residual activity,DDR2 (human),100%
same,residual activity,DYRK1B (human),104%
same,residual activity,DYRK3 (human),101%
same,residual activity,EPHA1 (human),102%
same,residual activity,ERBB4 (human),9.19%
same,residual activity,GSG2 (human),86.2%
same,residual activity,IKBKB (human),103%
same,residual activity,LYN (human),91.2% and 92.8%
same,residual activity,MAP2K1 (human),94.7%
same,residual activity,MAP3K10 (human),94.9%
same,residual activity,MAP3K3 (human),88.7%
same,residual activity,MAP3K8 (human),90.1%
same,residual activity,MAP3K9 (human),96.5%
same,residual activity,MARK3 (human),106%
same,residual activity,NEK3 (human),99.1%
same,residual activity,NTRK3 (human),93.8%
same,residual activity,PBK (human),109%
same,residual activity,PDGFRA (human),91.3%
same,residual activity,PLK2 (human),109%
same,residual activity,PNCK (human),99%
same,residual activity,PRKCG (human),98.5%
same,residual activity,PRKD1 (human),101%
same,residual activity,RET (human),89.1%
same,residual activity,RIPK2 (human),61.6%
same,residual activity,ROS1 (human),98%
same,residual activity,RPS6KA4 KD2 (human),105%
same,residual activity,SRPK2 (human),92.3%
same,residual activity,TAOK2 (human),106%
same,residual activity,TEK (human),97.9%
same,residual activity,TNK2 (human),53.1%
same,residual activity,TXK (human),99.4%
COc1ccc(C(=O)Nc2sc3c(c2C(N)=O)CCCC3)cc1OC,residual activity,ABL1 (human),101%
same,residual activity,ACVR1B (human),101%
same,residual activity,ADRBK2 (human),103%
same,residual activity,BMX (human),89.8%
same,residual activity,CAMK1G (human),99.4%
same,residual activity,CAMK2G (human),95.8%
same,residual activity,CAMKK2 (human),96.9%
same,residual activity,CDK7 CCNH MNAT1 (human),99.9%
same,residual activity,CSK (human),98.8%
same,residual activity,CSNK2A1 (human),98.8%
same,residual activity,DAPK3 (human),102%
same,residual activity,DDR2 (human),102%
same,residual activity,DYRK1B (human),104%
same,residual activity,DYRK3 (human),98%
same,residual activity,EPHA1 (human),88.1%
same,residual activity,ERBB4 (human),97.2%
same,residual activity,GSG2 (human),82.8%
same,residual activity,IKBKB (human),87.6%
same,residual activity,LYN (human),93.5% and 95.9%
same,residual activity,MAP2K1 (human),99.1%
same,residual activity,MAP3K10 (human),96.6%
same,residual activity,MAP3K3 (human),100%
same,residual activity,MAP3K8 (human),106%
same,residual activity,MAP3K9 (human),101%
same,residual activity,MARK3 (human),94.1%
same,residual activity,NEK3 (human),95.8%
same,residual activity,NTRK3 (human),57.7%
same,residual activity,PBK (human),103%
same,residual activity,PDGFRA (human),96.4%
same,residual activity,PLK2 (human),106%
same,residual activity,PNCK (human),103%
same,residual activity,PRKCG (human),93%
same,residual activity,PRKD1 (human),99.6%
same,residual activity,RET (human),102%
same,residual activity,RIPK2 (human),76.5%
same,residual activity,ROS1 (human),78.8%
same,residual activity,RPS6KA4 KD2 (human),102%
same,residual activity,SRPK2 (human),97.6%
same,residual activity,TAOK2 (human),97%
same,residual activity,TEK (human),96.4%
same,residual activity,TNK2 (human),93.4%
same,residual activity,TXK (human),96.2%
O=C1NC(=O)c2c1c1c3ccccc3[nH]c1n1cncc21,residual activity,ABL1 (human),85.6%
same,residual activity,ACVR1B (human),103%
same,residual activity,ADRBK2 (human),109%
same,residual activity,BMX (human),91.7%
same,residual activity,CAMK1G (human),94.7%
same,residual activity,CAMK2G (human),52.3%
same,residual activity,CAMKK2 (human),77.2%
same,residual activity,CDK7 CCNH MNAT1 (human),92.3%
same,residual activity,CSK (human),83.3%
same,residual activity,CSNK2A1 (human),52.6%
same,residual activity,DAPK3 (human),29.6%
same,residual activity,DDR2 (human),96.5%
same,residual activity,DYRK1B (human),65.9%
same,residual activity,DYRK3 (human),85.8%
same,residual activity,EPHA1 (human),72.4%
same,residual activity,ERBB4 (human),102%
same,residual activity,GSG2 (human),33.5%
same,residual activity,IKBKB (human),95.9%
same,residual activity,LYN (human),94.8% and 96.2%
same,residual activity,MAP2K1 (human),102%
same,residual activity,MAP3K10 (human),82.5%
same,residual activity,MAP3K3 (human),86.9%
same,residual activity,MAP3K8 (human),100%
same,residual activity,MAP3K9 (human),72.5%
same,residual activity,MARK3 (human),29.8%
same,residual activity,NEK3 (human),89.3%
same,residual activity,NTRK3 (human),26.1%
same,residual activity,PBK (human),72.4%
same,residual activity,PDGFRA (human),84.4%
same,residual activity,PLK2 (human),63.8%
same,residual activity,PNCK (human),105%
same,residual activity,PRKCG (human),117%
same,residual activity,PRKD1 (human),61.4%
same,residual activity,RET (human),42%
same,residual activity,RIPK2 (human),67.5%
same,residual activity,ROS1 (human),77%
same,residual activity,RPS6KA4 KD2 (human),61.3%
same,residual activity,SRPK2 (human),80.2%
same,residual activity,TAOK2 (human),89.4%
same,residual activity,TEK (human),78.9%
same,residual activity,TNK2 (human),41.3%
same,residual activity,TXK (human),76.4%
